According to PubChem BioAssay (NCI):
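Where inhibition never reached the appropriate level, the endpoint shown equals the highest concentration tested. Otherwise, values were interpolated linearly from a five-concentration, 48-hour dose response in 96-well plates. The concentration for full growth arrest is given as TGI.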

Legend:
Test in all cases: growth of human tumour cells (NCI), 48 h
[1] = tested on: EKVX NSCLC
[2] = tested on: TK-10 renal
[3] = tested on: OVCAR-3 ovarian
[4] = tested on: HOP-62 NSCLC
[5] = tested on: T-47D breast
[6] = tested on: HL-60(TB) leukemia
[7] = tested on: COLO 205 colon
[8] = tested on: SK-MEL-2 melanoma
[9] = tested on: UO-31 renal
[10] = tested on: HCT-15 colon
[11] = tested on: HOP-92 NSCLC
[12] = tested on: SNB-75 CNS
[13] = tested on: UACC-257 melanoma
[14] = tested on: HS 578T breast
[15] = tested on: NCI-H226 lung

CCCn1c(=O)c(N2CCN(c3ccccc3)CC2)nc2sc3ccccc3c21 showed a TGI [1] greater than 100 µM, a TGI [2] greater than 100 µM and a TGI [3] greater than 100 µM. The TGI [4] was greater than 100 µM, the TGI [5] was greater than 100 µM and the TGI [6] was greater than 100 µM. It also gave a TGI [7] greater than 100 µM, a TGI [8] greater than 100 µM and a TGI [9] greater than 100 µM. For the same compound, the TGI [10] was greater than 100 µM, the TGI [11] was greater than 100 µM and the TGI [12] was greater than 100 µM. For the same compound, the TGI [13] was greater than 100 µM and the TGI [14] was greater than 100 µM.

For CCN(CC)c1nnc(CCCCCCCCc2nnc(N(CC)CC)o2)o1, the TGI [1] was greater than 100 µM, the TGI [2] was greater than 100 µM and the TGI [3] was greater than 100 µM. The TGI [4] was greater than 100 µM, the TGI [6] was greater than 100 µM and the TGI [7] was greater than 100 µM. For the same compound, the TGI [8] was greater than 100 µM, the TGI [9] was greater than 100 µM and the TGI [10] was greater than 100 µM. The TGI [11] was greater than 100 µM, the TGI [12] was greater than 100 µM and the TGI [13] was greater than 100 µM. The TGI [15] was greater than 100 µM.

COc1cc(Oc2nc3ccc(C(F)(F)F)cc3nc2-c2ccccc2)cc(OC)c1OC was tested, and the TGI [1] was greater than 100 µM, the TGI [2] was 69.2 µM and the TGI [3] was 97.1 µM. It also gave a TGI [4] of 44.4 µM, a TGI [5] greater than 100 µM and a TGI [6] greater than 100 µM. For the same compound, the TGI [7] was greater than 100 µM, the TGI [9] was greater than 100 µM and the TGI [10] was greater than 100 µM. It also gave a TGI [11] of 45.7 µM, a TGI [12] of 23.5 µM and a TGI [13] greater than 100 µM. The TGI [15] was greater than 100 µM and the TGI [14] was greater than 100 µM.

OC(c1cccnc1Cl)c1nc2ccccc2c2ccnc(Cl)c12 (stereo not given) showed a TGI [1] greater than 100 µM, a TGI [2] greater than 100 µM and a TGI [3] greater than 100 µM. The TGI [4] was 15.3 µM, the TGI [5] was greater than 100 µM and the TGI [6] was 12.5 µM. For the same compound, the TGI [7] was greater than 100 µM, the TGI [8] was greater than 100 µM and the TGI [9] was greater than 100 µM. For the same compound, the TGI [10] was greater than 100 µM, the TGI [11] was greater than 100 µM and the TGI [12] was greater than 100 µM. It also gave a TGI [13] greater than 100 µM and a TGI [14] of 9.4 µM.

Work on CCOC(=O)c1c[nH]c2ccc3c(c2c1=O)S(=O)(=O)CC3 (tested in a mixture with another compound) yielded a TGI [1] greater than 100 µM, a TGI [3] greater than 100 µM and a TGI [4] greater than 100 µM. It also gave a TGI [6] greater than 100 µM, a TGI [7] greater than 100 µM and a TGI [8] greater than 100 µM. For the same compound, the TGI [9] was greater than 100 µM, the TGI [10] was greater than 100 µM and the TGI [11] was greater than 100 µM. It also gave a TGI [12] greater than 100 µM, a TGI [13] greater than 100 µM and a TGI [15] greater than 100 µM.

Work on N#CCCC1(CCC#N)CCCCCCCCC(CCC#N)(CCC#N)C(O)C1O (stereo not given) yielded a TGI [1] greater than 100 µM, a TGI [2] greater than 100 µM and a TGI [3] greater than 100 µM. For the same compound, the TGI [4] was greater than 100 µM, the TGI [5] was greater than 100 µM and the TGI [7] was greater than 100 µM. The TGI [8] was greater than 100 µM, the TGI [10] was greater than 100 µM and the TGI [11] was greater than 100 µM. The TGI [12] was greater than 100 µM, the TGI [13] was greater than 100 µM and the TGI [15] was greater than 100 µM. For the same compound, the TGI [14] was 91.3 µM.

In the case of C=C1CC[C@@H](C)[C@](C)(CCc2ccoc2)C/C=C\C=C/1C(=O)O, the TGI [1] is reported as greater than 100 µM, the TGI [2] is reported as greater than 100 µM and the TGI [3] is reported as 42.9 µM. For the same compound, the TGI [4] was greater than 100 µM, the TGI [6] was 57 µM and the TGI [7] was 49.4 µM. For the same compound, the TGI [8] was 43.8 µM, the TGI [9] was greater than 100 µM and the TGI [10] was greater than 100 µM. For the same compound, the TGI [11] was greater than 100 µM, the TGI [12] was greater than 100 µM and the TGI [13] was greater than 100 µM. It also gave a TGI [15] greater than 100 µM and a TGI [14] greater than 100 µM.

Cc1cnc2c(c1C)C(=O)c1ccccc1C2=O was tested, and the TGI [1] was greater than 100 µM, the TGI [2] was greater than 100 µM and the TGI [3] was greater than 100 µM. For the same compound, the TGI [4] was greater than 100 µM, the TGI [5] was greater than 100 µM and the TGI [7] was greater than 100 µM. The TGI [8] was greater than 100 µM, the TGI [9] was greater than 100 µM and the TGI [10] was 88.1 µM. It also gave a TGI [11] greater than 100 µM, a TGI [12] greater than 100 µM and a TGI [13] greater than 100 µM. The TGI [15] was greater than 100 µM and the TGI [14] was greater than 100 µM.

CC(C)(C)OC(=O)NCCCCC(N)NC(=O)c1ccccc1 (stereo not given) showed a TGI [1] greater than 100 µM, a TGI [2] greater than 100 µM and a TGI [3] greater than 100 µM. It also gave a TGI [4] greater than 100 µM, a TGI [5] greater than 100 µM and a TGI [7] greater than 100 µM. It also gave a TGI [8] greater than 100 µM, a TGI [9] greater than 100 µM and a TGI [10] greater than 100 µM. The TGI [11] was greater than 100 µM, the TGI [12] was greater than 100 µM and the TGI [13] was greater than 100 µM. It also gave a TGI [15] greater than 100 µM and a TGI [14] greater than 100 µM.

With Nc1nc2c(C(=O)O)c3ccc([N+](=O)[O-])cc3c(=O)n2c2ccccc12 the TGI [1] was greater than 100 µM, the TGI [3] was 57 µM and the TGI [4] was greater than 100 µM. It also gave a TGI [5] of 68.9 µM, a TGI [6] greater than 100 µM and a TGI [7] greater than 100 µM. It also gave a TGI [8] of 79.1 µM, a TGI [9] greater than 100 µM and a TGI [10] of 71.8 µM. The TGI [12] was 35.3 µM, the TGI [15] was 53.9 µM and the TGI [14] was 70.6 µM.

With C=CCOc1ccc(C2C(C(=O)OC)C(=O)CC(O)(c3ccccc3)C2C(=O)OC)cc1OC (stereo not given) the TGI [1] was greater than 100 µM, the TGI [2] was greater than 100 µM and the TGI [3] was greater than 100 µM. It also gave a TGI [4] greater than 100 µM, a TGI [5] of 46.9 µM and a TGI [6] greater than 100 µM. The TGI [7] was greater than 100 µM, the TGI [8] was greater than 100 µM and the TGI [9] was 61.8 µM. The TGI [10] was greater than 100 µM, the TGI [11] was 38.5 µM and the TGI [12] was 98.3 µM. For the same compound, the TGI [13] was greater than 100 µM and the TGI [15] was 60.3 µM.

CC(=O)OCC1OC(OCCCOP(=S)(OCCC#N)OCC2OC(n3ccc(N)nc3=O)C(OC(=O)c3ccccc3)C2OC(=O)c2ccccc2)C(OC(C)=O)C(OC(C)=O)C1OC(C)=O (stereo not given) showed a TGI [1] greater than 100 µM, a TGI [2] greater than 100 µM and a TGI [3] greater than 100 µM. For the same compound, the TGI [4] was greater than 100 µM, the TGI [5] was greater than 100 µM and the TGI [7] was greater than 100 µM. The TGI [8] was greater than 100 µM, the TGI [9] was greater than 100 µM and the TGI [10] was greater than 100 µM. For the same compound, the TGI [11] was greater than 100 µM, the TGI [12] was greater than 100 µM and the TGI [13] was greater than 100 µM. The TGI [15] was greater than 100 µM and the TGI [14] was greater than 100 µM.

In the case of CCCCCCCCCCCC[N+](CCCCCCCCCCCC)=C1SCCS1, the TGI [1] is reported as 26 µM, the TGI [2] is reported as 28.8 µM and the TGI [3] is reported as 19.8 µM. The TGI [4] was 30.5 µM, the TGI [6] was 12.1 µM and the TGI [7] was 20.4 µM. The TGI [8] was 23.2 µM, the TGI [9] was 26.2 µM and the TGI [10] was 22.9 µM. The TGI [11] was 23.1 µM, the TGI [12] was 30 µM and the TGI [13] was 21.3 µM. The TGI [15] was 28.2 µM.

For CCN(CC)C1Oc2cc3c(cc2C(c2cccc(OC)c2OC)C1C)OCO3 (stereo not given), the TGI [1] was 52.3 µM, the TGI [2] was 46.3 µM and the TGI [3] was 9.97 µM. The TGI [4] was 30.2 µM, the TGI [5] was 28.5 µM and the TGI [6] was 4.63 µM. For the same compound, the TGI [7] was 17 µM, the TGI [8] was 30.2 µM and the TGI [9] was 40.5 µM. It also gave a TGI [10] greater than 100 µM, a TGI [12] of 44.7 µM and a TGI [13] of 24.9 µM. The TGI [15] was 9.24 µM and the TGI [14] was 28.8 µM.

O=C1CCCC/C1=C\c1ccc(Cl)c(Cl)c1 gave a TGI [1] greater than 100 µM, a TGI [2] of 34.4 µM and a TGI [4] greater than 100 µM. It also gave a TGI [6] of 48.9 µM, a TGI [7] of 96.6 µM and a TGI [9] of 34 µM. The TGI [10] was 39.3 µM and the TGI [12] was 46.8 µM.

Work on CCCc1[nH]c2ccccc2c1-c1c(CCC)[nH]c2ccccc12 yielded a TGI [1] of 30.9 µM, a TGI [2] of 50.9 µM and a TGI [3] of 21.4 µM. For the same compound, the TGI [4] was 32.2 µM, the TGI [7] was 37.1 µM and the TGI [8] was 35.7 µM. For the same compound, the TGI [9] was 34.7 µM, the TGI [10] was 23.5 µM and the TGI [11] was 62.4 µM. The TGI [12] was 39.7 µM, the TGI [13] was 43.9 µM and the TGI [15] was 39.1 µM. For the same compound, the TGI [14] was 50.5 µM.

O=C1NC2CCCCCC2C12CCCCC2 (stereo not given) showed a TGI [1] greater than 100 µM, a TGI [2] greater than 100 µM and a TGI [3] greater than 100 µM. It also gave a TGI [4] greater than 100 µM, a TGI [6] greater than 100 µM and a TGI [9] greater than 100 µM. The TGI [10] was greater than 100 µM, the TGI [12] was greater than 100 µM and the TGI [13] was greater than 100 µM. For the same compound, the TGI [15] was greater than 100 µM.
